Results from PMC11909324 (Journal of the Science of Food and Agriculture, 2024).
Read-outs that look alike come from different tables or passages of the source.

Assays:
xanthine oxidase (XO) [1] = biological target: T1, xanthine oxidase (XO) (Bos taurus, UniProt P80457); experiment: XO assay with xanthine as substrate (uric acid formation, HPLC-UV); assay type: biochemical, bovine; details: inhibitor 20 μmol L^−1, xanthine 5 μmol L^−1;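 also: incubations in 0.05 mol L^−1 sodium phosphate buffer, with uric acid and remaining xanthine both quantified by HPLC-UV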
T1 construct: XO (from bovine milk); purchased Merck (Darmstadt, Germany); host or cells: bovine milk (natural source)

xanthine oxidase (XO) [2] = biological target: T1, xanthine oxidase (XO); experiment: XO assay with 6MP as substrate (6-thiouric acid formation, HPLC-UV); assay type: biochemical, bovine; details: inhibitor 20 μmol L^−1; 6MP 5 μmol L^−1;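 also: incubation in 0.05 mol L^−1 sodium phosphate buffer, with 6MP and 6-thiouric acid quantified by HPLC-UV and conversion taken as the product share of substrate plus product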
[3] = cited from earlier work
[4] = cited from earlier work; remark: listed apart in the source

T1 sequence (P80457 whole entry): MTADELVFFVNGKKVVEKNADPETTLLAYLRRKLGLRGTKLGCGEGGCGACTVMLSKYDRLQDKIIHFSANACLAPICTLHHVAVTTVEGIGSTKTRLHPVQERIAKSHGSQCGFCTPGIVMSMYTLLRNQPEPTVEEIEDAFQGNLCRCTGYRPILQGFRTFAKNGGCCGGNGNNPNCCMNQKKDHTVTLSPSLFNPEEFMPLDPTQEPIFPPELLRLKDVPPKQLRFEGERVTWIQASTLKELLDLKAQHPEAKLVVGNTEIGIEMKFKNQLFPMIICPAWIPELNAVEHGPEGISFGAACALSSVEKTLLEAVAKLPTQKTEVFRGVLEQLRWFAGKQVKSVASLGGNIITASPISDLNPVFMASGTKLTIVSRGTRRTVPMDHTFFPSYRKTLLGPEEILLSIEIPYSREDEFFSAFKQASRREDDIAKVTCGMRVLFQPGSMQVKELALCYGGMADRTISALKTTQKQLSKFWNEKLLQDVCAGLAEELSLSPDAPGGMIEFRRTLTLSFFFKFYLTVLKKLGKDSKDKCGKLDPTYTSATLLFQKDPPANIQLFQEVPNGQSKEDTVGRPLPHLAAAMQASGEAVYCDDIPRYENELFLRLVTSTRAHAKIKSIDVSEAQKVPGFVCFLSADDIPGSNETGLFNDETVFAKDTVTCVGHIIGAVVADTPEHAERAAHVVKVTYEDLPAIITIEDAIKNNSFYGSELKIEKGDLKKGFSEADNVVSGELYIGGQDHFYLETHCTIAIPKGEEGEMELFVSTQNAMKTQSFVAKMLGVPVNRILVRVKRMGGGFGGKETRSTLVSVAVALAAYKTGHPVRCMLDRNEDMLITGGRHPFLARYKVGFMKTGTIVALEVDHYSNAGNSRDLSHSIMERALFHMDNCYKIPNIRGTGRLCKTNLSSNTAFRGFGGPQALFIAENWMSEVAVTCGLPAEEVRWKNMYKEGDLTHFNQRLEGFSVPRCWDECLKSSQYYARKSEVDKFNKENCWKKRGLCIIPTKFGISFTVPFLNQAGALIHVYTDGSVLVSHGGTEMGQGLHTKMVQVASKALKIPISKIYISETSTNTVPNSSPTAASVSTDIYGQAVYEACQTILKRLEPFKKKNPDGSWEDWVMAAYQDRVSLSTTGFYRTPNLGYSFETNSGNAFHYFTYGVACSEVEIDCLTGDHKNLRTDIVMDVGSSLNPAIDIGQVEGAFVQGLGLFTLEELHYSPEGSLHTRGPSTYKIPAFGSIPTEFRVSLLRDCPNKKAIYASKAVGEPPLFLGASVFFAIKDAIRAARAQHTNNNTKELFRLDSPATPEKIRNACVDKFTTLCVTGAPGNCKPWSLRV

SMILES | decrease in uric acid production (inhibition of XO-catalyzed xanthine oxidation) (xanthine oxidase (XO) [1]) [%] | decrease in 6-thiouric acid formation (inhibition of XO-catalyzed 6MP oxidation) (xanthine oxidase (XO) [2]) | peak plasma concentrations ([3]; in vivo) [µmol/L] | inhibition at 20 µM (xanthine oxidase (XO) [1]; read-out: decrease in uric acid production (inhibition of XO-catalyzed xanthine oxidation)) [%] | peak plasma concentrations ([3]; humans, peroral high doses (0.5–5.0 g) of RES) [µmol/L] | oral bioavailability [4]
O=C(O)[C@H]1O[C@@H](Oc2cc(O)cc(/C=C/c3ccc(O)cc3)c2)[C@H](O)[C@@H](O)[C@@H]1O [R3G, resveratrol‐3‐glucuronide] | 10 | not significant | 10 to 20 | – | – | –
O=S(=O)(O)Oc1cc(O)cc(C=Cc2ccc(O)cc2)c1 [R3S, resveratrol‐3‐sulfate] | – | weak to moderate inhibitors | – | 27 | 10 to 20 | –
Oc1ccc(/C=C/c2cc(O)cc(O)c2)cc1 [RES, resveratrol] | – | weak to moderate inhibitors | – | – | – | less than 1%
